The nature of data set [1]: High dosages of IRPs in mice (weight, histology). The class given is in vivo, BALB/c mice. The following applies: for Liver: Liver changes, number of animals / Liver: Mixed cell infiltration, number of animals / Liver: No significan changes, number of animals / Right Kidney: No significant changes, number of animals / Right Kidney: Tubular basophilia, number of animals / Right Kidney: Tubular changes, number of animals: 6 animals; for Heart: No significant changes, number of animals: tissue missing in two animals. On the procedure: To test the activity of IRPs at high dosages in mice, IRPs or a control (saline) were subcutaneously administered to BALB/c mice at a dosage of 4 mg/kg, 20 mg/kg, 50 mg/kg, or 100 mg/kg on days 1, 4, 7, and 10 (n=5 per group). Mice were weighed prior to administration and on days 2, 4, 7, 9, and 11. Serum cytokines were assayed at two hours post the first and third injections and 24 hours post the fourth injection. Organs were harvested at the end of the study, and organ weights and tissues levels of the oligonucleotides were determined. In addition, histological evaluation of the liver, kidney, and heart was performed.
Mice were weighed prior to administration and on days 1, 3, 4, 6, 7, and 9. Organs were harvested at the end of the study, and organ weights and tissues levels of the oligonucleotides were determined. In addition, histological evaluation of the liver, kidney, and heart was performed.

The next data set relates to human B-cells. The data set can be described thus: Human B-cells cultured in the presence of IRPs, IL-6.
A short description of data set [2]: Monomer and tetramer formation of IRPs, size-exclusion HPLC. The following applies: 100 mg/mL in PBS and 0.5M KCl, room temperature, five weeks. Type of data set: physicochemical. On the procedure:
Solutions were prepared of the by mixing 100 mg/mL of the IRP sequences in PBS and 0.5M KCl and storing at room temperature for three to five weeks. The solutions were subsequently analyzed by size-exclusion HPLC.
(In general: Size exclusion chromatography separates by hydrodynamic size, large species first.)

Data set [3] is described as follows: High dosages of IRPs in rats (weight, deaths, histology). The class given is in vivo, Sprague Dawley rats. The following applies: for Heart: Cell Vacuolation, number of animals / Heart: Hemorrhage, number of animals / Heart: Mononuclear Cell Infiltration, number of animals / Heart: Necrosis, number of animals / Heart: No significant changes, number of animals / Liver: Liver changes, number of animals / Liver: Mixed cell infiltration, number of animals / Liver: Necrosis, number of animals / Liver: No significant changes, number of animals / Liver: Vacuolation, number of animals / Right Kidney: Hydronephrosis, number of animals / Right Kidney: Mineralization, number of animals / Right Kidney: Necrosis, number of animals / Right Kidney: No significant changes, number of animals / Right Kidney: Tubular basophilia, number of animals / Right Kidney: Tubular changes, number of animals: 6 animals. The method, then: To test the activity of IRPs at high dosages in rats, IRPs (SEQ ID NO:42 and SEQ ID NO:109) or a control (PBS) were subcutaneously administered to 8-9 weeks old, […], 3, 6, and 9 (n=6 per group). Rats were weighed prior to administration and on days 1, 3, 4, 6, 7, and 9. Organs were harvested at the end of the study, and organ weights and tissues levels of the oligonucleotides were determined. In addition, histolocial evaluation of the liver, kidney, and heart was performed.
Rats were weighed prior to administration and on days 1, 3, 6, 7, and 9. Organs were harvested at the end of the study, and organ weights and tissues levels of the oligonucleotides were determined. In addition, histological evaluation of the liver, kidney, and heart was performed.

Setting [4] is: 50 mg/kg, 0 = no change to 4 = severe.
Where [5] appears, read: 100 mg/kg, 0 = no change to 4 = severe.
[6] abbreviates: rat, 10 mg/kg, 0 = no change to 4 = severe.
[7] abbreviates: rat, 90 mg/kg, 0 = no change to 4 = severe.
The mark [8] stands for this setting: Experiment # 4, Max Conc 4.0 uM.
[9] abbreviates: Experiment # 5, Max Conc 4.0 uM.
Setting [10] is: Experiment # 6, Max Conc 4.0 uM.
Setting [11] is: Experiment # 7, Max Conc 4.0 uM.
The mark [12] stands for this setting: Experiment # 10, Max Conc 2.0 uM.
The mark [13] stands for this setting: Experiment # 8, Max Conc 2.0 uM.
Setting [14] is: Experiment # 2, Max Conc 4.0 uM.

Marks after values point to notes of the source that are not given here. [I] = hypoxanthine (inosine); d = 2'-deoxy (DNA); m = 2'-O-methyl

As for “5′-TGC TCC TGG AGI GGT TG-HEG-T-3′ (DNA TGCTCCTGGAGNGGTTGNT; inosine, internal HEG spacer, chemistry not fully specified) [SEQ ID NO:143]”, in data set [1] (50 mg/kg), the “Heart: Chronic inflammation, number of animals” value came out at 2; the “Heart: Mineralization, number of animals” value amounted to 1; the “Liver: Liver changes, number of animals” value stood at 6; the “Liver: Mixed cell infiltration, number of animals” value is recorded as 6. For the same substance, in data set [1] (50 mg/kg), the “Liver: No significan changes, number of animals” value is listed as 0; the “Right Kidney: No significant changes, number of animals” value (shortened to “Right Kidney: No significant changes”) is 5; the “Right Kidney: Tubular basophilia, number of animals” value was 1; the “Right Kidney: Tubular changes, number of animals” value was 0. In data set [1] (50 mg/kg), the “Heart: No significant changes, number of animals” value (“Heart: No significant changes” below) is 1**. Further, in data set [1] (setting [4]), the “Heart: Chronic inflammation, mean severity score” value came to 2.0; the “Heart: Mineralization, mean severity score” value came to 4.0; the “Liver: Liver changes, mean severity score” value was 2.0; the “Liver: Mixed cell infiltration, mean severity score” value stood at 3.0. Further, in data set [1] (setting [4]), the “Right Kidney: Tubular basophilia, mean severity score” value amounted to 2.0. In data set [1] (100 mg/kg), the “Heart: Chronic inflammation, number of animals” value was 0; the “Heart: Mineralization, number of animals” value came out at 1; the “Liver: Liver changes, number of animals” value is reported as 0; the “Liver: Mixed cell infiltration, number of animals” value was found to be 1. Also, in data set [1] (100 mg/kg), the “Liver: No significan changes, number of animals” value turned out to be 5; the “Right Kidney: No significant changes” value turned out to be 6; the “Right Kidney: Tubular basophilia, number of animals” value was 0; the “Right Kidney: Tubular changes, number of animals” value is 0. Moreover, the “Heart: No significant changes” value in data set [1] (100 mg/kg) is 3**. Besides, in data set [1] (setting [5]), the “Heart: Mineralization, mean severity score” value was found to be 3.0 and the “Liver: Mixed cell infiltration, mean severity score” value is recorded as 1.0. Further, the “Normalized IL-6 Response (Percentage of Positive Control)” value in the data set on human B-cells (Experiment # 3, Max Conc 4.0 uM) is recorded as 5%. Further, the B-cell stimulatory activity result in the data set on human B-cells (FIG. 1C, percent IL-6 from CpG-ISS) is on record as “low B-cell stimulatory activity”. Also, the “fraction in monomer form” value in data set [2] is listed as 100%. The toxicity profile entry in data set [3] (rat histology) is on record as “favorable toxicity profiles”. Also, in data set [3] (rat, 10 mg/kg), the “Heart: Cell Vacuolation, number of animals” value is 0; the “Heart: Hemorrhage, number of animals” value amounted to 0; the “Heart: Mononuclear Cell Infiltration, number of animals” value turned out to be 0; the “Heart: Necrosis, number of animals” value was determined as 0. Moreover, in data set [3] (rat, 10 mg/kg), the “Heart: No significant changes” value was found to be 6; the “Liver: Liver changes, number of animals” value is 0; the “Liver: Mixed cell infiltration, number of animals” value is reported as 5; the “Liver: Necrosis, number of animals” value was 0. In data set [3] (rat, 10 mg/kg), the “Liver: No significant changes, number of animals” value stood at 1; the “Liver: Vacuolation, number of animals” value is 2; the “Right Kidney: Hydronephrosis, number of animals” value turned out to be 0; the “Right Kidney: Mineralization, number of animals” value is 1. For the same substance, in data set [3] (rat, 10 mg/kg), the “Right Kidney: Necrosis, number of animals” value was found to be 0; the “Right Kidney: No significant changes” value was 0; the “Right Kidney: Tubular basophilia, number of animals” value stood at 0; the “Right Kidney: Tubular changes, number of animals” value is on record as 6. Further, in data set [3] (setting [6]), the “Liver: Mixed cell infiltration, mean severity score” value is reported as 1.4; the “Liver: Vacuolation, mean severity score” value was 1.5; the “Right Kidney: Mineralization, mean severity score” value is listed as 2.0; the “Right Kidney: Tubular changes, mean severity score” value was found to be 1.1. In data set [3] (rat, 90 mg/kg), the “Heart: cellular vacuolation” value was “present in some animals”; the “Kidney: tubular basophilia” value is given as “occurred”; the “Liver: hepatocellular cytoplasmic vacuolation” value is “hepatocellular cytoplasmic vacuolation”; the “Heart: Cell Vacuolation, number of animals” value was 5. In addition, in data set [3] (rat, 90 mg/kg), the “Heart: Hemorrhage, number of animals” value was found to be 0; the “Heart: Mononuclear Cell Infiltration, number of animals” value worked out at 0; the “Heart: Necrosis, number of animals” value stood at 0; the “Heart: No significant changes” value is 1. Moreover, in data set [3] (rat, 90 mg/kg), the “Liver: Liver changes, number of animals” value came out at 6; the “Liver: Mixed cell infiltration, number of animals” value is reported as 1; the “Liver: Necrosis, number of animals” value came to 0; the “Liver: No significant changes, number of animals” value was determined as 0. Also, in data set [3] (rat, 90 mg/kg), the “Liver: Vacuolation, number of animals” value is recorded as 5; the “Right Kidney: Hydronephrosis, number of animals” value came to 0; the “Right Kidney: Mineralization, number of animals” value was determined as 2; the “Right Kidney: Necrosis, number of animals” value stood at 0. In data set [3] (rat, 90 mg/kg), the “Right Kidney: No significant changes” value stood at 0; the “Right Kidney: Tubular basophilia, number of animals” value came out at 3; the “Right Kidney: Tubular changes, number of animals” value stood at 6. In data set [3] (setting [7]), the “Heart: Cell Vacuolation, mean severity score” value came out at 1.0; the “Liver: Liver changes, mean severity score” value is given as 2.1; the “Liver: Mixed cell infiltration, mean severity score” value turned out to be 1.0; the “Liver: Vacuolation, mean severity score” value turned out to be 2.7. For the same substance, in data set [3] (setting [7]), the “Right Kidney: Mineralization, mean severity score” value was 2.0; the “Right Kidney: Tubular basophilia, mean severity score” value stood at 1.0; the “Right Kidney: Tubular changes, mean severity score” value is listed as 1.8.
For “5′-UGC TGC TCC TTG AGI GGT TGT (DNA UGCTGCTCCTTGAGNGGTTGT; sugars from the 5' end m3 d18, [I] at 15, backbone not given here) [SEQ ID NO:114]”, the “Normalized IL-6 Response (Percentage of Positive Control)” value in the data set with human B-cells (setting [8]) is 40%; with human B-cells (setting [9]), 39%; with human B-cells (setting [10]), 39%; with human B-cells (setting [11]) it was 40%.
Consider “5′-UGC TGC TCC TTG AGI GGT TGT (DNA UGCTGCTCCTTGAGNGGTTGT; sugars from the 5' end m3 d18, [I] at 15, backbone not given here) [SEQ ID NO:126]”, for which the “Normalized IL-6 Response (Percentage of Positive Control)” value in the data set with human B-cells (Experiment # 11, Max Conc 2.0 uM) turned out to be 37%.
“5′-UGC TGC TCC TTG AGI GGT TGT (DNA UGCTGCTCCTTGAGNGGTTGT; sugars from the 5' end m3 d18, [I] at 15, backbone not given here) [SEQ ID NO:127]”: the “Normalized IL-6 Response (Percentage of Positive Control)” value in the data set on human B-cells (setting [12]) turned out to be 46%.
On the same count and under the same terms, under “5′-UGC TGC TCC TTG AGI GGT TGT AAG T (DNA UGCTGCTCCTTGAGNGGTTGTAAGT; sugars from the 5' end m3 d22, [I] at 15, backbone not given here) [SEQ ID NO:129]” stands 51%.
Turning to “5′-UGCTTGTCCTGGAGGGGTTGT (DNA NNNTTGTCCTGGAGGGGTTGT; listed as DNA, chemistry not fully specified) [SEQ ID NO:87]”, the figures for the “Normalized IL-6 Response (Percentage of Positive Control)” value in the data set with human B-cells (setting [9]) and in the data set on human B-cells (setting [10]) were 16% and 12%, respectively.
For the substance “5′-UGC TTG TCC TGG AGI GGT GTT GT (DNA UGCTTGTCCTGGAGNGGTGTTGT; sugars from the 5' end m3 d20, [I] at 15, backbone not given here) [SEQ ID NO:124]”, the “Normalized IL-6 Response (Percentage of Positive Control)” value in the data set with human B-cells (setting [13]) worked out at 33%.
As to “5′-UGC TTG TCC TGG AGI GGT TG-HEG-T (DNA NNNTTGTCCTGGAGNGGTTGNT; inosine, internal HEG spacer, chemistry not fully specified) [SEQ ID NO:142]”, the “Normalized IL-6 Response (Percentage of Positive Control)” value is reported as 35% in the data set on human B-cells (setting [14]) and 22% in the data set with human B-cells (setting [13]).
For “5′-UGC TTG TCC TGG AGI GGT TGT (DNA UGCTTGTCCTGGAGNGGTTGT; sugars from the 5' end m3 d18, [I] at 15, backbone not given here) [SEQ ID NO:123]”, the “Normalized IL-6 Response (Percentage of Positive Control)” value with human B-cells (setting [14]) is 35%; with human B-cells (Experiment # 9, Max Conc 2.0 uM) it was 35%.
With “5′TGC TCC TTG AGI GGT TGT TTG T-3′ (DNA TGCTCCTTGAGNGGTTGTTTGT; DNA, [I] at 12, backbone not given here) [SEQ ID NO:63]”, the “Normalized IL-6 Response (Percentage of Positive Control)” value in the data set on human B-cells (setting [8]) was found to be 46%; with human B-cells (setting [9]), 48%; in the data set with human B-cells (setting [10]), 41%; with human B-cells (setting [11]), 46%.
